US12458605B2, “Lipid nanoparticle” (National University Corporation Hokkaido University, priority 2020, dated 2025)

Experiments:
[1] = Storage stability of FlucmRNA-loaded LNP at −80, 5, 25 and 40° C.; assay type: physicochemical; conditions: for period for which quality remained good, −80° C.: maximum storage period 1 week; for quality at production (storage stability criteria): criteria: PDI 0.2 or less, encapsulation 80% or more
Procedure: Lipid nanoparticles were allowed to stand at each temperature of −80° C., 5° C., 25° C., and 40° C., and after keeping for each period of time, average particle size, PDI, and nucleic acid encapsulation rate were measured. Lipid nanoparticles which satisfy following all three conditions were defined that the quality was remained well: the average particle size is maintained within +/−20 nm based on the date of LNP preparation; PDI remains high uniformity with a value of 0.2 or less; and the nucleic acid encapsulation rate is also maintained at 80% or more. As a result of measuring average particle size, PDI, and nucleic acid encapsulation rate after each FlucmRNA-loaded lipid nanoparticle was allowed to stand at −80° C., 5° C., 25° C., and 40° C. respectively and kept for each period of time, periods of time defined as the quality of the lipid nanoparticles was remained well are shown in Tables 13 and 14. The lipid nanoparticles which remain in good quality with standing at 5° C. for one week or more can be evaluated as having excellent stability.

[2] = test system: liver; test: In vivo Fluc activity of FlucmRNA-loaded LNP by in vivo imaging, liver; conditions: Balb/c mice, FlucmRNA-loaded LNP i.v. 0.1 mg mRNA/kg, 6 hours
Procedure: (§1) Then, each prepared FlucmRNA-loaded lipid nanoparticles were administered to Balb/c mice (Charles River Laboratories Japan, Inc., 7 weeks old, female) and in vivo gene expression activity was examined. Specifically, each FlucmRNA-loaded lipid nanoparticles were intravenously administered to Balb/c mice at 0.1 mg mRNA/kg, and Fluc activities in the liver and spleen at 6 hours later were measured. Fluc activity was measured by in vivo imaging system (Perkin Elmer, IVIS200) after administration of VivoGlo Luciferin, In Vivo Grade (Promega, P1041) dissolved with PBS to 15 mg/mL, via tail vein at a dose of 1.5 mg per mouse. The unit of Fluc activity is the emission intensity per unit area (Avg Radiance [p/s/cm2/sr]) at the maximum emission wavelength of about 560 nm. The results of measurement of the Fluc activity (Avg Radiance [p/s/cm2/sr]) in the liver and spleen of mice administered each FlucmRNA-loaded lipid nanoparticles are shown in Tables 5-7.

[3] = Average particle size (ζ-Average) and PDI by dynamic light scattering (Zetasizer Nano ZSP); assay type: physicochemical
Procedure: The average particle size (ζ-Average) and PDI in PBS(−) of lipid nanoparticles were measured using “Zetasizer Nano ZSP”, an analyzer utilizing dynamic light scattering (manufactured by Malvern).
Measurement of average particle size and PDI of the lipid nanoparticles were carried out with the same method as the measurement of average particle size of mRNA-LNP.
The average particle size (ζ-Average) and PDI in PBS (−) of lipid nanoparticles were measured using “Zetasizer Nano ZSP”, an analyzer utilizing dynamic light scattering (manufactured by Malvern).

[4] = test system: spleen; test: In vivo Fluc activity of FlucmRNA-loaded LNP by in vivo imaging, spleen; conditions: Balb/c mice, 6 hours; for Fluc Activity in spleen: FlucmRNA-loaded LNP i.v. 0.1 mg mRNA/kg; for Fluc activity in the spleen, compared with CL4F6: 0.1 mg mRNA/kg, versus LNP comprising CL4F6 (Tables 5 and 6)
Procedure: as §1

[5] = test system: F7; test: In vivo F7 knockdown, plasma F7 enzyme activity (BIOPHEN FVII), Balb/c mice; conditions: for F7 enzyme activity (%) / F7 enzyme activity (Ratio using MC3 as 1): i.v. 0.025 mg siRNA/kg, plasma at 24 hours; for F7 enzyme activity (%): untreated mice as 100%; for F7 enzyme activity (Ratio using MC3 as 1): relative plasma F7 activity of MC3 LNP as 1
Procedure: Then, each prepared F7siRNA-loaded lipid nanoparticles were administered to Balb/c mice (Charles River Laboratories Japan, Inc., 5 weeks old, female) and in vivo F7 knockdown activity was examined. Specifically, BALB/c mice were intravenously administered F7siRNA-loaded lipid nanoparticles comprising the lipids described in Table 9 at 0.025 mg siRNA/kg and F7siRNA-loaded lipid nanoparticles comprising the lipids described in Tables 10 and 11 at 0.025 mg siRNA/kg, and the plasma F7 enzyme activity at 24 hours later was measured using BIOPHEN FVII (Biophen, A221304). Relative plasma F7 enzyme activity (%) of mice administered each F7siRNA-loaded lipid nanoparticles was calculated using plasma F7 enzyme activity of untreated mice as 100%. Furthermore, the ratio was calculated using the relative plasma F7 enzyme activity (%) of mice administered MC3-comprising F7siRNA-loaded lipid nanoparticles as 1. The results of measurement of CL4F6 derivative nanoparticles are shown in Tables 9 and 10, and results of measurement of CL15F6 derivative nanoparticles in Table 11.

[6] = siRNA/mRNA encapsulation rate by Ribogreen reagent (section IV); assay type: physicochemical; conditions: for % siRNA encapsulation: F7siRNA-loaded LNP, 50:10:38.5:1.5, N/P ratio 6; for % mRNA encapsulation: FlucmRNA-loaded LNP, 50:10:38.5:1.5
Procedure: The encapsulation rates of siRNA and mRNA of lipid nanoparticles were measured with Ribogreen reagent. A solution diluted with TE buffer solution was arranged so that lipid nanoparticle concentration as nucleic acid concentration to be 8 μg/mL, as a solution for measuring nanoparticle surface nucleic acid concentration. In addition, a solution for measuring total nucleic acid concentration was arranged so that lipid nanoparticle concentration as nucleic acid concentration to be 1.2 μg/mL, which is 1% (w/w) concentration of X-triton100, by adding X-triton100. For 100 μL of each solution, 100 μL of Ribogreen (registered trademark) reagent (Quant-iT™ RiboGreen™ RNA Reagent, manufactured by Thermofisher Scientific) was mixed well in the wells of 96-well microplate (black, made of polystyrene, flat bottom, manufactured by Corning), and the fluorescence intensity at an excitation wavelength of 485 nm and a measurement wavelength of 528 nm was measured with a microplate reader. Nucleic acid concentration was calculated by calibration curve created by measuring the fluorescence intensity of nucleic acid solution containing 1% X-triton100 (nucleic acid concentration: 0-2.5 μg/mL) as same as aforementioned. Nucleic acid encapsulation rate of each lipid nanoparticle was calculated by the following formula: Encapsulation rate %=(nucleic acid concentration in solution for measuring total nucleic acid concentration (μg/mL)−nucleic acid concentration in solution for measuring nanoparticle surface nucleic acid concentration (μg/mL))/nucleic acid concentration in solution for measuring total nucleic acid concentration (μg/mL)×100. <Results>
The encapsulation rate of mRNA of lipid nanoparticles was measured using Ribogreen (manufactured by life technologies).

[7] = F7siRNA-loaded LNP, 50:10:38.5:1.5, N/P ratio 6
[8] = FlucmRNA-loaded LNP, 50:10:38.5:1.5
[9] = FlucmRNA-loaded LNP, lipid:DSPC:cholesterol:DMG-PEG2K 50:10:38.5:1.5

Row | period for which quality remained good, −80° C. [1] [week] | period for which quality remained good, 5° C. ([1]; maximum storage period 5 weeks) [weeks] | period for which quality remained good, 25° C. ([1]; maximum storage period 5 weeks) [weeks] | period for which quality remained good, 40° C. (weeks) ([1]; maximum storage period 5 weeks) | PDI [3, 7] | ζ-Average (nm) [3, 7] [nm] | PDI [3, 8] | ζ-Average (nm) [3, 9] [nm] | % siRNA encapsulation [6] [%] | % mRNA encapsulation [6] [%] | period for which quality remained good, 40° C. ([1]; maximum storage period 5 weeks) [days] | period for which quality remained good, 40° C. (days) ([1]; maximum storage period 5 weeks) [day days] | Molecule | Fluc Activity in liver [2] | Fluc Activity in spleen [4] | quality at production (storage stability criteria) [1] | F7 enzyme activity (%) [5] [%] | Fluc activity in the spleen, compared with CL4F6 [4] | knockdown activity, compared with MC3 ([5]; F7siRNA-loaded LNP, versus LNP comprising MC3) | F7 enzyme activity (Ratio using MC3 as 1) [5]
1 | 1 | 5 | 5 | 5 weeks |  |  |  |  |  |  |  |  | 7-hydroxy-7-(4-((1-methylpiperidine-4-carbonyl)oxy)butyl)tridecan-1,13-diyl bis(2-(4,4-dimethylpentan-2-yl)-5,7,7-trimethyloctanoate [CL15G6] |  |  |  |  |  |  | 
2 | 1 | 5 | 5 | 5 weeks |  |  | 0.021 | 89.18 |  | 99.1 |  |  | CCCCCCCC(CCCCCC)C(=O)OCCCCCCC(O)(CCCCCCOC(=O)C(CCCCCC)CCCCCCC)CCCCN(CCC)CCC (centres unmarked) [CL4F 9-6] | 9.61E+07 Avg Radiance [p/s/cm2/sr] | 3.89E+06 Avg Radiance [p/s/cm2/sr] |  |  |  |  | 
3 |  |  |  |  |  |  | 0.225 | 158.30 |  | 86.2 |  |  | CCCCCCCCCCCCCCCC(=O)OCCCCCCC(O)(CCCCCCOC(=O)CCCCCCCCCCCCCCC)CCCCN(CCC)CCC [CL4F 16-0] | 2.32E+04 Avg Radiance [p/s/cm2/sr] | 2.83E+05 Avg Radiance [p/s/cm2/sr] | Does not meet the criteria for “good” at production |  |  |  | 
4 |  |  |  |  | 0.534 | 390.7 |  |  | 100.4 |  |  |  | CCCCC(CC)C(=O)OCCCCCCC(O)(CCCCCCOC(=O)C(CC)CCCC)CCCCOC(=O)C1CCN(C)CC1 (centres unmarked) [CL15F 6-2] |  |  | Does not meet the criteria for “good” at production |  |  |  | 1.87

Second part, the molecule before the results:

Row | Molecule | period for which quality remained good, −80° C. [1] [week] | period for which quality remained good, 5° C. ([1]; maximum storage period 5 weeks) [weeks] | period for which quality remained good, 25° C. ([1]; maximum storage period 5 weeks) [weeks] | period for which quality remained good, 40° C. (weeks) ([1]; maximum storage period 5 weeks) | PDI [3, 7] | ζ-Average (nm) [3, 7] [nm] | PDI [3, 8] | ζ-Average (nm) [3, 9] [nm] | % siRNA encapsulation [6] [%] | % mRNA encapsulation [6] [%] | period for which quality remained good, 40° C. ([1]; maximum storage period 5 weeks) [days] | period for which quality remained good, 40° C. (days) ([1]; maximum storage period 5 weeks) [day days] | Fluc Activity in liver [2] | Fluc Activity in spleen [4] | quality at production (storage stability criteria) [1] | F7 enzyme activity (%) [5] [%] | Fluc activity in the spleen, compared with CL4F6 [4] | knockdown activity, compared with MC3 ([5]; F7siRNA-loaded LNP, versus LNP comprising MC3) | F7 enzyme activity (Ratio using MC3 as 1) [5]
5 | CCCCC(CC)C(=O)OCCCCCCC(O)(CCCCCCOC(=O)C(CC)CCCC)CCCCN(CCC)CCC (centres unmarked) [CL4F 6-2] |  |  |  |  | 0.298 | 274.50 | 0.069 | 218.20 | 56.9 | 41.4 |  |  | 1.34E+03 Avg Radiance [p/s/cm2/sr] | 1.24E+05 Avg Radiance [p/s/cm2/sr] | Does not meet the criteria for “good” at production | 54.8 |  |  | 
6 | CCCCC(CCCC)C(=O)OCCCCCCC(O)(CCCCCCOC(=O)C(CCCC)CCCC)CCCCN(CCC)CCC [CL4F 6-4] | 0 | 5 | 5 |  |  |  | 0.023 | 141.10 |  | 97.2 | 3 |  | 2.17E+05 Avg Radiance [p/s/cm2/sr] | 2.95E+05 Avg Radiance [p/s/cm2/sr] |  |  |  |  | 
7 | CCCCCC(CCC)C(=O)OCCCCCCC(O)(CCCCCCOC(=O)C(CCC)CCCCC)CCCCN(CCC)CCC (centres unmarked) [CL4F 7-3] | 0 | 5 | 5 |  |  |  | 0.025 | 133.90 |  | 98.1 |  | 0 | 3.43E+05 Avg Radiance [p/s/cm2/sr] | 6.64E+05 Avg Radiance [p/s/cm2/sr] |  |  |  |  | 
8 | CCCCCC(CCCC)C(=O)OCCCCCCC(O)(CCCCCCOC(=O)C(CCCC)CCCCC)CCCCN(CCC)CCC (centres unmarked) [CL4F 7-4] | 0 | 5 | 5 | 1 week weeks |  |  | 0.032 | 113.50 |  | 98.8 |  |  | 5.05E+06 Avg Radiance [p/s/cm2/sr] | 7.43E+06 Avg Radiance [p/s/cm2/sr] |  |  | higher Fluc activity |  | 
9 | CCCCCC(CCCCC)C(=O)OCCCCCCC(O)(CCCCCCOC(=O)C(CCCCC)CCCCC)CCCCN(CCC)CCC [CL4F 7-5] | 1 | 2 | 5 | 1 week weeks | 0.021 | 120.20 | 0.057 | 109.80 | 100.1 | 99.9 |  |  | 4.56E+07 Avg Radiance [p/s/cm2/sr] | 1.47E+07 Avg Radiance [p/s/cm2/sr] |  | 35.7 | higher Fluc activity |  | 
10 | CCCCCCC(CCCCC)C(=O)OCCCCCCC(O)(CCCCCCOC(=O)C(CCCCC)CCCCCC)CCCCN(CCC)CCC (centres unmarked) [CL4F 8-5] | 1 | 5 | 5 | 5 weeks | 0.034 | 103.40 | 0.043 | 94.65 | 99.7 | 99.1 |  |  | 4.80E+07 Avg Radiance [p/s/cm2/sr] | 1.45E+07 Avg Radiance [p/s/cm2/sr] |  |  | higher Fluc activity | higher knockdown activity | 0.38
11 | CCCCCCCC(CCCC)C(=O)OCCCCCCC(O)(CCCCCCOC(=O)C(CCCC)CCCCCCC)CCCCN(CCC)CCC (centres unmarked) [CL4F 9-4] | 1 | 5 | 5 | 1 week weeks |  |  | 0.002 | 95.29 |  | 99.1 |  |  | 2.55E+07 Avg Radiance [p/s/cm2/sr] | 8.69E+06 Avg Radiance [p/s/cm2/sr] |  |  | higher Fluc activity |  | 
